Laboratory results from ChEMBL document CHEMBL1201862, “PubChem BioAssay data set” (2004).
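Values below derive from 48-hour exposures of cells grown in 96-well plates, with endpoints linearly interpolated between the two concentrations bracketing the appropriate inhibition level. Here, GI50 denotes the concentration required for 50% inhibition of growth.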 Calls of active or inactive are those of the source. Cut-off read from the data, not from the text of the source: active = GI50 up to about 1.1 µM and inactive = higher.

Legend:
Experiment in all cases: DTP human tumour cell line panel, 48 h
K562 = test system: K562
OVCAR-8 = test system: OVCAR-8
M14 = test system: M14
HOP-62 = test system: HOP-62
SF-295 = test system: SF-295
OVCAR-5 = test system: OVCAR-5
TK-10 = test system: TK-10
ACHN = test system: ACHN
KM12 = test system: KM12
HL-60 = test system: HL-60
MOLT-4 = test system: MOLT-4
MDA-MB-435 = test system: MDA-MB-435
SF-539 = test system: SF-539
NCI-H226 = test system: NCI-H226
786-0 = test system: 786-0
T47D = test system: T47D
HCT-116 = test system: HCT-116
BT-549 = test system: BT-549
MDA-N = test system: MDA-N

| SMILES | GI50 (K562) | GI50 (OVCAR-8) | GI50 (M14) | GI50 (HOP-62) | GI50 (SF-295) | GI50 (OVCAR-5) | GI50 (TK-10) | GI50 (ACHN) | GI50 (KM12) | GI50 (HL-60) | GI50 (MOLT-4) | GI50 (MDA-MB-435) | GI50 (SF-539) | GI50 (NCI-H226) | GI50 (786-0) | GI50 (T47D) | GI50 (HCT-116) | GI50 (BT-549) | GI50 (MDA-N) |
| --- | --- | --- | --- | --- | --- | --- | --- | --- | --- | --- | --- | --- | --- | --- | --- | --- | --- | --- | --- |
| CCCCCCCC(CC(=O)NC(CO)C(=O)NC(CO)CC(C)C)OC(=O)CC(CCCCCCC)OC(=O)CC(CCCCCCC)OC1OC(C)C(O)C(OC2OC(C)C(O)C(OC(C)=O)C2O)C1O (stereo unspecified) | 12.4 µM (inactive) | 13.9 µM (inactive) | 10.7 µM (inactive) | 12.2 µM (inactive) | 15.8 µM (inactive) | 11.7 µM (inactive) | 15.6 µM (inactive) | 17.2 µM (inactive) | 8.99 µM (inactive) | 5.69 µM (inactive) | 2.81 µM (inactive) | 11 µM (inactive) | 12.1 µM (inactive) | 17.4 µM (inactive) | 13.4 µM (inactive) | 12.9 µM (inactive) | 13.1 µM (inactive) | 6.47 µM (inactive) | 5.41 µM (inactive) |
| Nc1ccccc1.O=C(O)C(C(F)(F)F)C(F)(F)F | > 100 µM (inactive) | > 100 µM (inactive) | > 100 µM (inactive) | > 100 µM (inactive) | > 100 µM (inactive) | > 100 µM (inactive) | > 100 µM (inactive) | > 100 µM (inactive) | 71.8 µM (inactive) | > 100 µM (inactive) | > 100 µM (inactive) | > 100 µM (inactive) | > 100 µM (inactive) | > 100 µM (inactive) | > 100 µM (inactive) | > 100 µM (inactive) | > 100 µM (inactive) | > 100 µM (inactive) | > 100 µM (inactive) |
| CCCCOC(=O)C1CN2C(=NC1(C(F)(F)F)C(F)(F)F)Sc1ccccc12 (stereo unspecified) | 12.2 µM (inactive) | 43.6 µM (inactive) | 44.1 µM (inactive) | 82.4 µM (inactive) | 36.9 µM (inactive) | > 100 µM (inactive) | 30.6 µM (inactive) | 30.3 µM (inactive) | 27.2 µM (inactive) | 16.6 µM (inactive) | 23 µM (inactive) | > 10 µM (inactive) | 44.1 µM (inactive) | 27 µM (inactive) | 64.3 µM (inactive) | 16.8 µM (inactive) | 33 µM (inactive) | 26.1 µM (inactive) | 60.3 µM (inactive) |
| CCOC(=O)C(C)c1nc2cc(N3CCOCC3)c(F)cc2[nH]c1=O (stereo unspecified) | > 100 µM (inactive) | > 100 µM (inactive) | > 100 µM (inactive) | > 100 µM (inactive) | > 100 µM (inactive) | > 100 µM (inactive) | > 100 µM (inactive) | > 100 µM (inactive) | > 100 µM (inactive) | > 100 µM (inactive) | > 100 µM (inactive) | > 100 µM (inactive) | > 100 µM (inactive) | > 100 µM (inactive) | > 100 µM (inactive) | > 100 µM (inactive) | > 100 µM (inactive) | > 100 µM (inactive) | > 100 µM (inactive) |
| O=S(=O)(/C=C/C=C/[S+]([O-])c1ccccc1)c1ccccc1 (stereo unspecified) | 0.902 µM (active) | 1.7 µM (inactive) | 0.685 µM (active) | > 10 µM (inactive) | > 10 µM (inactive) | > 8.22 µM (inactive) | 2.09 µM (inactive) | 2.34 µM (inactive) | > 2.63 µM (inactive) | 0.327 µM (active) | 1.42 µM (inactive) | 2.07 µM (inactive) | 8.09 µM (inactive) | > 10 µM (inactive) | 0.625 µM (active) | 2.02 µM (inactive) | 1.38 µM (inactive) | > 10 µM (inactive) | 2.95 µM (inactive) |
| COc1cc2oc(-c3ccc4c(c3)OCO4)c(OC)c(=O)c2c(OC)c1O | 34.4 µM (inactive) | 32.8 µM (inactive) | > 100 µM (inactive) | 57.4 µM (inactive) | 41.7 µM (inactive) | > 100 µM (inactive) | 56.4 µM (inactive) | 67.8 µM (inactive) | > 100 µM (inactive) | 28.7 µM (inactive) | 45.7 µM (inactive) | 70.3 µM (inactive) | > 100 µM (inactive) | > 100 µM (inactive) | 10.9 µM (inactive) | 31.5 µM (inactive) | 61 µM (inactive) | 31.4 µM (inactive) | > 100 µM (inactive) |
| Clc1nc(Cl)nc(NC23CC4CC(CC(C4)C2)C3)n1 | 13.7 µM (inactive) | 18.1 µM (inactive) | 18 µM (inactive) | 17.7 µM (inactive) | 19.7 µM (inactive) | 19.5 µM (inactive) | 17.7 µM (inactive) | 35.3 µM (inactive) | 14.9 µM (inactive) | 3.44 µM (inactive) | 17.9 µM (inactive) | 16.2 µM (inactive) | 17.5 µM (inactive) | 21 µM (inactive) | 17.3 µM (inactive) | 17.2 µM (inactive) | 17.1 µM (inactive) | 19.3 µM (inactive) | 17.4 µM (inactive) |
| Cn1c2ccccc2c2c(=S)c3ccccc3ccc21 | 43.5 µM (inactive) | 56.5 µM (inactive) | > 100 µM (inactive) | 79.6 µM (inactive) | 76 µM (inactive) | > 100 µM (inactive) | > 100 µM (inactive) | > 100 µM (inactive) | 55.7 µM (inactive) | > 100 µM (inactive) | 16.2 µM (inactive) | > 100 µM (inactive) |  | 50.5 µM (inactive) | > 100 µM (inactive) | 20.7 µM (inactive) | 59 µM (inactive) | > 100 µM (inactive) | > 100 µM (inactive) |
| NC(=O)c1cc2ccccc2o/c1=N/O | > 100 µM (inactive) | > 100 µM (inactive) | > 100 µM (inactive) | > 100 µM (inactive) | > 100 µM (inactive) |  | > 100 µM (inactive) | > 100 µM (inactive) | > 100 µM (inactive) | 75.2 µM (inactive) | > 100 µM (inactive) | 54.1 µM (inactive) | > 100 µM (inactive) | > 100 µM (inactive) | > 100 µM (inactive) | > 100 µM (inactive) | > 100 µM (inactive) | > 100 µM (inactive) | > 100 µM (inactive) |
| O=C1c2cc([N+](=O)[O-])ccc2-c2ccc3c4ccc5c6c(ccc(c7ccc1c2c73)c64)C(=O)c1cc([N+](=O)[O-])ccc1-5 | > 100 µM (inactive) | > 100 µM (inactive) | > 100 µM (inactive) | > 100 µM (inactive) | > 100 µM (inactive) | > 100 µM (inactive) | > 100 µM (inactive) | > 100 µM (inactive) | > 100 µM (inactive) | > 100 µM (inactive) | > 100 µM (inactive) | > 100 µM (inactive) |  | > 100 µM (inactive) | > 100 µM (inactive) | > 100 µM (inactive) | > 100 µM (inactive) | > 100 µM (inactive) | > 100 µM (inactive) |
| NC(=O)c1csc(-c2ccc(CO)o2)n1 | > 100 µM (inactive) | > 100 µM (inactive) | > 100 µM (inactive) |  | > 100 µM (inactive) | > 100 µM (inactive) | > 100 µM (inactive) | > 100 µM (inactive) | > 100 µM (inactive) | > 100 µM (inactive) | > 100 µM (inactive) | > 100 µM (inactive) | > 100 µM (inactive) | > 100 µM (inactive) | > 100 µM (inactive) | > 100 µM (inactive) | > 100 µM (inactive) | > 100 µM (inactive) | > 100 µM (inactive) |
| CC(=O)C(C(=O)c1ccc(C)cc1)[C@@H]1OC(C)(C)O[C@@H]1[C@H]1COC(C)(C)O1 (stereo partly specified) | 2.05 µM (inactive) | 7.26 µM (inactive) | 11.3 µM (inactive) | 10.5 µM (inactive) | 37.7 µM (inactive) | 40.9 µM (inactive) | 30.3 µM (inactive) | 9.59 µM (inactive) | 4.02 µM (inactive) | 1.67 µM (inactive) | 2.61 µM (inactive) | 9.75 µM (inactive) | 5.79 µM (inactive) |  | 6.4 µM (inactive) | 11.4 µM (inactive) | 3.72 µM (inactive) | 15 µM (inactive) | 7.21 µM (inactive) |
| O=c1c(-c2ccccc2Cl)coc2cc(F)ccc12 |  | 33.7 µM (inactive) | 14.3 µM (inactive) | 22.2 µM (inactive) | 19.4 µM (inactive) | 27.1 µM (inactive) | 47.9 µM (inactive) | > 100 µM (inactive) | 21.5 µM (inactive) | 4.3 µM (inactive) | 22 µM (inactive) | 2.1 µM (inactive) | 11.9 µM (inactive) | 23.4 µM (inactive) | 30.4 µM (inactive) | 45.1 µM (inactive) | 31.8 µM (inactive) | 14.9 µM (inactive) | 3.79 µM (inactive) |
| COc1cc(/C=C/C2=NN(c3cccc(S(=O)(=O)O)c3)C3(C2)SCC(=O)N3c2nc3ccccc3s2)cc(OC)c1OC (stereo unspecified) | 41.1 µM (inactive) | 44.1 µM (inactive) | 74.8 µM (inactive) |  |  | > 100 µM (inactive) | 29.9 µM (inactive) | 64.3 µM (inactive) | 38.5 µM (inactive) | 23.8 µM (inactive) | 32.9 µM (inactive) | 23 µM (inactive) | 46 µM (inactive) | 44.8 µM (inactive) | 18.4 µM (inactive) | 15 µM (inactive) | 50.5 µM (inactive) | 42 µM (inactive) | 39.4 µM (inactive) |
| C(=N\NC1=NCCN1)/c1cccc2cc3ccncc3nc12 | 1.36 µM (inactive) | 1.93 µM (inactive) | 12.6 µM (inactive) | 6.22 µM (inactive) | 3.04 µM (inactive) |  | 10.4 µM (inactive) | 2.84 µM (inactive) | 5.73 µM (inactive) | 1.04 µM (active) | 1.69 µM (inactive) | 2.49 µM (inactive) | 5.85 µM (inactive) | 8.28 µM (inactive) | 1.95 µM (inactive) | 2.14 µM (inactive) | 1.57 µM (inactive) | 16 µM (inactive) | 2.89 µM (inactive) |
